Measured values as given in patent publication US8338380B2, “Use of the peptide RFMWMR as a therapeutic agent” (priority 2007, dated 2012).

System: drug-resistant Mycobacterium tuberculosis
Settings: 5 micrograms per ml

## Ac-RFMWMR-NH2 [Ac-Arg-Phe-Met-Trp-Met-Arg-NH2]
  % inhibition: 100.0%
